Test results from the NIST ThermoML archive (doi:10.1016/j.jct.2015.05.004).

Assay: xn = mol fraction of the nth substance listed
Settings: 100 kPa, Liquid; for speed of sound: Frequency=3 MHz, Sing-around technique in a fixed-path interferometer; for mass density: Vibrating tube method

CCCCn1cc[n+](C)c1.N#C[S-] [1-butyl-3-methylimidazolium thiocyanate] + CC(=O)O
Settings	mass density, 293.15 K [kg/m3]	mass density, 298.15 K [kg/m3]	mass density, 303.15 K [kg/m3]	mass density, 308.15 K [kg/m3]	mass density, 313.15 K [kg/m3]	speed of sound, 293.15 K [m/s]	speed of sound, 298.15 K [m/s]	speed of sound, 303.15 K [m/s]	speed of sound, 308.15 K [m/s]	speed of sound, 313.15 K [m/s]
x1 = 0.058	1064.97	1060.08	1055.2	1050.32	1045.44	1270.5	1252.4	1235.9	1218.7	1202
x1 = 0.1206	1070.89	1066.45	1062	1057.56	1053.12	1369.6	1353.9	1338	1322.1	1306.4
x1 = 0.1878	1072.93	1069.2	1064.96	1060.77	1056.64	1448.3	1433.8	1419	1404.2	1389.4
x1 = 0.2632	1073.93	1070.07	1066.21	1062.35	1058.51	1520	1506.3	1492.2	1478.1	1464.2
x1 = 0.3498	1073.95	1070.59	1066.92	1063.27	1059.63	1576.8	1563.6	1550.1	1536.6	1523.3
x1 = 0.4503	1074.04	1070.98	1067.53	1064.1	1060.67	1626.5	1613.6	1600.6	1587.6	1574.8
x1 = 0.5559	1073.89	1070.99	1067.68	1064.39	1061.21	1667	1658.3	1641.9	1629.3	1616.9
x1 = 0.6831	1073.66	1071.08	1067.9	1064.74	1061.59	1707.6	1695.4	1683.1	1670.8	1658.6
x1 = 0.8282	1073.35	1070.87	1067.81	1064.75	1061.71	1744.3	1732.4	1720.3	1708.4	1696.4
x1 = 0.9042	1073.19	1070.77	1067.74	1064.74	1061.75	1760.7	1749	1737	1725.2	1713.4
x1 = 1	1072.74	1070.34	1067.37	1064.42	1061.47	1778.8	1767.2	1755.4	1743.7	1732.1

CC(=O)O [acetic acid] + CCCCn1cc[n+](C)c1.N#C[S-]
x2 = 0
Settings	mass density [kg/m3]	speed of sound [m/s]
293.15 K	1049.75	1152.7
298.15 K	1044.13	1135.7
303.15 K	1038.48	1118.4
308.15 K	1032.83	1101.2
313.15 K	1027.18	1084
